EP4299131A1, “HYDROPHILIC PHENALENONES AND THEIR USE IN ANTIMICROBIAL PHOTODYNAMIC THERAPY” (Centre national de la recherche scientifique, priority 2022, dated 2024)
Read-outs that look alike come from different tables or passages of the source.

Experiments:
[1] = tested on: Staphylococcus aureus CIP76.25; experiment: Antibacterial photodynamic inactivation, MIC/MBC by micromethod in 96-well plates; assay type: cell-based
Protocol: (§1) To evaluate the biological activity of the molecules, the minimal inhibitory concentration (MIC) and the minimal bactericidal concentration (MBC) were determined on bacterial cultures (Staphylococcus aureus CIP76.25, Pseudomonas aeruginosa CIP76.110) by micromethod in 96-well plates. Briefly, bacterial cultures in log-phase were diluted in sterile PBS 1X at a concentration equivalent to 4×10^6 UFC/mL. Serial dilutions of different molecules were performed in PBS 1X to a final concentration from 200 to 1.5 µM and 50 µl of each dilution were added in the microplate wells. Then, 50 µl of diluted bacterial culture were added in each well. Two different plates for each strain were prepared: one plate for the dark condition and a second plate for light irradiation.
(§2) Two controls were included; a bacterial growth control with no molecule added and a negative control with PBS without bacterial inoculum and no molecules.
(§3) The microplate was incubated at 37°C for 1h in dark condition. After that, bacteria were irradiated with LED white light (total fluence: 25J/cm^2). During the time of irradiation, the second plate was maintained in the dark. Then, 100 µL of 2-fold concentrated TS broth were added in each well and the microplate was incubated at 37°C for 24h. The MIC values were determined as the lowest concentration without observed bacterial growth. For determination of the MBC, 100 µl from wells where no evident growth was observed were diluted in physiological water (NaCl 0.9%). All 10-fold serial dilutions were spread on TS agar plates using an automatic plater (easySPIRAL®, Interscience, Saint-Nom La Bretêche, France). After incubation at 37 °C for 24 h, colonies were counted to determine total CFU per mL (CFU/mL). The MBC corresponds to the concentration of the active compound for which 99.99% of the bacteria have been killed (i.e. 4 log reduction compared to the untreated control). Three independent experiments were performed with each strain.

[2] = tested on: Pseudomonas aeruginosa CIP76.110; experiment: as above; assay type: cell-based; conditions: for MBC / MIC: Pseudomonas aeruginosa
Protocol: as §1, §2, §3

[3] = actinometer value of SAPYR, excitation at 355 nm, ref [27]; cited from earlier work
[4] = Photochemical stability under blue light monitored by 1H NMR; assay type: physicochemical; conditions: D2O, irradiation at 470 nm (3.5 mW.cm^-2) for 24h, under oxygen or Argon
Protocol: Photochemical stability: In an NMR tube, a solution of dyes 1a-c or SAPYR in D2O ([C] = 17.5 mmol/L) was irradiated at 470 nm (3.5 mW.cm^-2) under oxygen or Argon atmosphere (the gas was bublled solution was oxygenated or degassed by bubbling through the solution for 5 minutes and put under gas atmosphere). 1H NMR spectra were recorded after 24h irradiation time for each sample.

[5] = UV/Visible and fluorescence spectroscopy, fluorescence lifetime (TCSPC); assay type: physicochemical; conditions: for ΦF (fluorescence quantum yield): 6-ethoxyphenalenone as actinometer; for ε: at the longest-wavelength absorption maximum; for λmax(em): excited at 400 nm
Protocol: UV/Visible and fluorescence spectroscopy: UV-Vis spectra were recorded on an Agilent 8453 Diode-Array spectrophotometer in the range of 250-700 nm. Emission spectra were measured in an ISS PC1 spectrofluorometer at room temperature. Fluorescence quantum yields were determined using equation (1) and 6-ethoxy-phenalenone in methanol as reference. ΦF,sample = ΦF,reference (Areference)/(Asample)(Isample)/(Ireference)(((ηsample)/(ηreference)))^2 [formula] ΦF is the fluorescence quantum yields. A: is the absorbance in the wavelength of excitation, I correspond to area of the emission spectra and η is the refractive index of the solvent. The excitation wavelength was 400 nm for all steady state fluorescence experiments.
Luminescence lifetime measurements were carried out using a PicoQuant FluoTime 200 fluorescence lifetime spectrometer with a multichannel scaler (PicoQuant's Timeharp 250) with the time correlated single photon counting (TCSPC) method. As excitation resource laser 405 nm was employed.

[6] = Singlet oxygen quantum yield by chemical trapping with ADPA; assay type: physicochemical; conditions: D2O (470 nm); ADPA as chemical probe, Eosin Y as reference
Protocol: Chemical trapping experiments: Quantum yields of singlet oxygen produced by 1a-c was evaluated by monitoring the UV/Visible absorption change in an Agilent 8453 Diode-Array spectrophotometer of 3,3'-anthracene-9,10-diyldipropanoic acid (ADPA) which is a well-known singlet oxygen trap. […] A solution of 1a-c in deuterated water (A473nm = 0.06) was prepared and an aliquot of ADPA in deuterated water was added to reach A378nm = 0.74. The photoabsorption spectral change of ADPA solution with photosensitizers 1a-c was monitored following the decrease of the band at 382 nm. Plots of Ln(A/A0) vs. time (s) give linear graphs for which the slope is the experimental kinetic rate constant (k, s^-1) (Ao is the initial absorption intensity and A is the absorption intensity at the time t). From comparison of experimental rate constants between phenalenone derivatives 1a-c and two selected actinometers (Eosin Y and Riboflavin, see supporting information for results using Riboflavin) using optically-matched solutions, singlet oxygen quantum yields of the photosensitizers ΦΔ can be determined from the following equation: φΔ = (k)/(kref) × φΔ,ref [formula]

[7] = Singlet oxygen quantum yield by 1O2 phosphorescence at 1270 nm; assay type: physicochemical; conditions: phosphorescence method
Protocol: Singlet oxygen quantum yield measurements: Lifetime decays of singlet oxygen, O2(^1Δg), were acquired with a FluoTime 200 equipped with multichannel scaler Nanoharp 200. […] For the detection at 1270 nm a NIR PMT H10330A (Hamamatsu) was employed. The O2(^1Δg) quantum yields (ΦΔ) were determined by comparing the intensity at zero time of the 1270 nm signals to those of optically-matched solutions of SAPYR or Eosin Y as references.

[8] = CIP76, light or radiation study
[9] = CIP76, S.a, dark (D), read-out: MBC
[10] = CIP76, S.a, dark (D), read-out: MIC
[11] = CIP76, light or radiation study, S.a, light (L), LED white light, total fluence 25 J/cm^2, read-out: MBC
[12] = CIP76, light or radiation study, S.a, light (L), LED white light, total fluence 25 J/cm^2, read-out: MIC
[13] = CIP76, light or radiation study, P.a, light (L), LED white light, total fluence 25 J/cm^2, read-out: MBC
[14] = CIP76, light or radiation study, P.a, light (L), LED white light, total fluence 25 J/cm^2, read-out: MIC
[15] = CIP76, P.a, dark (D), read-out: MBC
[16] = CIP76, P.a, dark (D), read-out: MIC
[17] = D2O (470 nm), Eosin Y as actinometer
[18] = D2O, SAPYR as actinometer, excitation at 355 nm
[19] = DMSO, SAPYR as actinometer, excitation at 355 nm
[20] = MeOH, SAPYR as actinometer, excitation at 355 nm

| SMILES | MBC [1, 9] | MIC [1, 10] | MBC [1, 11] | MIC [1, 12] | MBC [2, 13] | MIC [2, 14] | MBC [2, 15] | MIC [2, 16] | TF (singlet lifetime) ([5]; DMSO) | Δλ (Stokes shift) ([5]; DMSO) | λabs ([5]; DMSO) | ΦF (fluorescence quantum yield) ([5]; DMSO) | ε ([5]; DMSO) | λmax(em) ([5]; DMSO) | TF (singlet lifetime) ([5]; H2O) | Δλ (Stokes shift) ([5]; H2O) | λabs ([5]; H2O) | ΦF (fluorescence quantum yield) ([5]; H2O) | ε ([5]; H2O) | λmax(em) ([5]; H2O) | other results |
| --- | --- | --- | --- | --- | --- | --- | --- | --- | --- | --- | --- | --- | --- | --- | --- | --- | --- | --- | --- | --- | --- |
| O=C1C(C[n+]2ccccc2)=Cc2cccc3cccc1c23 [SAPYR, reference compound] | – | – | – | – | – | – | – | – | – | – | – | – | – | – | – | – | – | – | – | – | MBC [1, 8]: 167 µM; MIC [1, 8]: 83.3 µM; MBC [2, 8]: > 200 µM; MIC [2, 8]: > 200 µM; photodynamic effects ([2]; illumination under white light): did not exhibit any photodynamic effects; ΦΔ [3]: 1.02; photochemical stability [4]: complete decomposition |
| COc1ccc2c3c(cc(CN(CCO)CCO)c(-c4ccccc4)c13)C(=O)C=C2.Cl [1c, 8-((bis(2-hydroxyethyl)amino)methyl)-6-methoxy-7-phenyl-1H-phenalen-1-one chloride] | > 200 µM | > 200 µM | 41.7 µM | 41.7 µM | 41.7 µM | 33 µM | > 200 µM | > 200 µM | 5.38 ns | 92 nm | 441 nm | 0.071 | 11984 M⁻¹ cm⁻¹ | 533 nm | 7.39 ns | 92 nm | 459 nm | 0.217 | 10053 M⁻¹ cm⁻¹ | 551 nm | TF (singlet lifetime) ([5]; MeOH): 8.24 ns; Δλ (Stokes shift) ([5]; MeOH): 96 nm; λabs ([5]; MeOH): 446 nm; ΦF (fluorescence quantum yield) ([5]; MeOH): 0.233; ε ([5]; MeOH): 12256 M⁻¹ cm⁻¹; λmax(em) ([5]; MeOH): 542 nm; ΦΔ [6]: 0.08; ΦΔ [7, 17]: 0.09; ΦΔ [7, 18]: 0.06; ΦΔ [7, 19]: 0.91; ΦΔ [7, 20]: 0.15 |
| COc1ccc2c3c(cc(C[n+]4ccccc4)c(-c4ccccc4)c13)C(=O)C=C2.[Cl-] [1b, 1-((6-methoxy-1-oxo-7-phenyl-1H-phenalen-8-yl)methyl)pyridin-1-ium chloride] | > 200 µM | > 200 µM | 67 µM | 50 µM | > 200 µM | > 200 µM | > 200 µM | > 200 µM | 6.24 ns | 91 nm | 444 nm | 0.067 | 10472 M⁻¹ cm⁻¹ | 535 nm | 7.15 ns | 88 nm | 463 nm | 0.192 | 9259 M⁻¹ cm⁻¹ | 551 nm | TF (singlet lifetime) ([5]; MeOH): 7.65 ns; Δλ (Stokes shift) ([5]; MeOH): 95 nm; λabs ([5]; MeOH): 447 nm; ΦF (fluorescence quantum yield) ([5]; MeOH): 0.209; ε ([5]; MeOH): 9344 M⁻¹ cm⁻¹; λmax(em) ([5]; MeOH): 542 nm; ΦΔ [6]: 0.15; ΦΔ [7, 17]: 0.11; ΦΔ [7, 18]: 0.06; ΦΔ [7, 19]: 0.63; ΦΔ [7, 20]: 0.12 |
| COc1ccc2c3c(cc(C[N+](C)(C)Cc4ccccc4)c(-c4ccccc4)c13)C(=O)C=C2.[Cl-] [1a, N-benzyl-1-(6-methoxy-1-oxo-7-phenyl-1H-phenalen-8-yl)-N,N-dimethylmethanaminium chloride] | > 200 µM | 167 µM | 133 µM | 50 µM | > 200 µM | > 200 µM | > 200 µM | > 200 µM | 6.04 ns | 92 nm | 441 nm | 0.069 | 11426 M⁻¹ cm⁻¹ | 533 nm | 7.65 ns | 90 nm | 459 nm | 0.241 | 9239 M⁻¹ cm⁻¹ | 549 nm | TF (singlet lifetime) ([5]; MeOH): 8.15 ns; Δλ (Stokes shift) ([5]; MeOH): 95 nm; λabs ([5]; MeOH): 447 nm; ΦF (fluorescence quantum yield) ([5]; MeOH): 0.221; ε ([5]; MeOH): 9363 M⁻¹ cm⁻¹; λmax(em) ([5]; MeOH): 542 nm; ΦΔ [6]: 0.09; ΦΔ [7, 17]: 0.12; ΦΔ [7, 18]: 0.06; ΦΔ [7, 19]: 0.79; ΦΔ [7, 20]: 0.10 |
